Measured values from patent publication US8877452B2, “Nitrite-reductase (NIRB) as potential anti-tubercular target and a method to detect the severity of tuberculosis disease” (priority 2013, dated 2014).
Where two headings read alike, the source gives them in different places.

Experiments:
[1] = test system: Mycobacterium tuberculosis in THP-1 macrophage; assay type: cell-based
THP-1 macrophages = assay: Cytotoxic effect on THP-1 macrophages, DAPI fluorescence microscopy; assay type: cell-based, Human; details: 100 μM; 10 days of treatment; compared with untreated control
Experimental: The THP1 macrophages were treated with 100 μM of p-HMB (Inhibitor) and incubated for 10 days and then stained with DAPI dye before taking pictures under a fluorescent microscope. The control cells were treated with the vehicle only under identical conditions.
THP-1 macrophage cells were grown on cover slip in 8 well microplates and washed twice with chilled methanol followed by staining with 4′,6-diamidino-2-phenylindole (DAPI) at final concentration of 300 nM. Macrophage cells were kept for 15 min at room temperature under dark condition. After incubation, cells were washed three times with distilled water and analyzed under the fluorescence microscope (Leitz Wetzlar model, Germany) at 350 nm excitation and 450 nm emission wavelengths (400×) using ‘A’ filter.
To investigate the host THP-1 macrophage cells condition due to its exposure to p-HMB inhibitor before considering its effective and specific inhibition of bacilli in macrophage infection models, fluorescence microscopic picture of THP-1 cells treated with p-HMB (100 μM) was compared with the untreated control after staining with DAPI (4′,6-diamidino-2-phenylindole). Fluorescence images were taken after 10th day of inhibitor treatment.

[2] = test system: Mycobacterium tuberculosis

Row | Compound | decrease in intracellular viable bacilli count compared to control (without inhibitor) [1] [log difference] | decrease in intracellular viable bacilli count compared to control (without inhibitor) ([1]; […], cell count on 10th day PI, THP-1 macrophages) [log difference] | reduction of bacilli count ([1]; in-vitro and ex-vivo conditions (summary statement)) [log cfu] | cytotoxic effect on macrophage (nuclear integrity, DAPI staining) (THP-1 macrophages) | cell count reduction compared to bacilli grown under ammonia [2] [log difference]
1 | [N-]=[N+]=[N-] [Azide] | ~1.5 |  |  |  | 
2 | CS(=N)(=O)CC[C@H](N)C(=O)O (stereo partly drawn) [L-MSO, L-methionine sulfoximine] | ~2.5 |  |  |  | 
3 | O=C(O)c1cc[c]([Hg][OH])cc1 [p-HMB, para-hydroxy mercuric benzoate] |  | ~2 | ~2 | without exhibiting any cytotoxic effects | ~2.5
